Reference: patent US5256686A, “Phenylalkan(en)oic acid” (Ono Pharmaceutical Co., Ltd., priority 1989, dated 1993)

Experiments:
Human PMNLs = assay: Inhibition of human PMNLs aggregation (LTB4-induced); assay type: cell-based; settings: PMNL, LTB4 10^-8 M solution, 3 min preincubation at 37° C., pH 7.4
Procedure: ii) Inhibition of Human PMNLs aggregation
The purified human PMNLs were suspended in Hank's-0.5% BSA medium (pH 7.4) at 1×10^7 cells/ml. The PMNLs suspentions (200 μl) were preincubated with varying concentrations of tasted compounds for 3 min at 37° C. prior to the addition of 10^-8 M solution ([…]) of LTB4 in Hank's solution. PMNLs aggregation in vitro was performed with a multichannel platelet aggregometer. Aggregation was detected as change in light transmission with an aggregometer.

human PMNL LTB4 receptor = molecular target: T1, human PMNL LTB4 receptor (Homo sapiens, UniProt Q15722); assay: Binding affinity of 3H-LTB4 antagonist to human PMNL LTB4 receptor (inhibition of specific 3H-LTB4 binding); settings: 1 nM 3H-LTB4, human PMNLs, 4° C., 20 min
T1 construct: endogenous in cells; host or cells: human polymorphonuclear leukocytes (PMNL), intact cells
Procedure: Human PMNLS (1×10^7 cells) were incubated with 1 nM ^3 H-LTB4 in Hanks balanced salt solution (1 ml) at 4° C. for 20 min. in the presence or absence of increasing concentrations of unlabeled LTB4 or various compounds. Free ^3 H-LTB4 was separated from PMNLs-bound ligands by vacuum filteration through Whatman GF/B or C glass fiber filters. The filters were then washed rapidly 4 times with 2.5 ml of the ice-cold phosphate buffered saline. The radioactivity retained in the filter was determined by liquid scintillation counting. Specific binding was defined as the difference between total binding and binding in the presence of 3 μM LTB4 (nonspecific binding). The inhibitory effect of specific ^3 H-LTB4 binding was calculated from the following equation.
The percentage of inhibition (%)=100-(B1 /B0 ×100)
B1 : specific ^3 H-LTB4 binding in presence of antagonist
B0 : specific ^3 H-LTB4 binding in absence of antagonist

[1] = Acute toxicity (LD50) in mouse; settings: in vivo
Text: It was confirmed that the toxicity of the compounds, of the present invention were very low. […] Accordingly, it was confirmed that the compounds of the present invention were useful for pharmaceutical agent.

T1 sequence (Q15722 whole entry): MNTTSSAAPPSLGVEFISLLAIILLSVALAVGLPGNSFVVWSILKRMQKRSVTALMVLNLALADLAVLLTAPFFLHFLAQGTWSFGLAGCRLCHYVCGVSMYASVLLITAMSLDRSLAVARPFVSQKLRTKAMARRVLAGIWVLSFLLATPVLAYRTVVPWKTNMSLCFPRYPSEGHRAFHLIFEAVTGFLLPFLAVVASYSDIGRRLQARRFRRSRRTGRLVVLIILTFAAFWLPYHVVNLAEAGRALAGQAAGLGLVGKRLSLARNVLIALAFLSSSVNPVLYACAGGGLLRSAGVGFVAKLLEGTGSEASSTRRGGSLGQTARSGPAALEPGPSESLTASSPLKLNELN

IC50 (Human PMNLs) [nM] | IC50 (human PMNL LTB4 receptor) [nM] | Structure (SMILES) | LD50 ([1]; intravenous administration) [mg/kg] | LD50 ([1]; oral administration) [mg/kg]
3600 | 45 | COc1ccc(/C=C/CCCCOc2ccc(NC(=O)CCCC(=O)N(C)C)cc2CCC(=O)O)cc1 [1 (a), 3-[1-[6-(4-methoxyphenyl)hex-5E-enyl]oxy-4-(4-dimethylaminocarbonylbutanamido)benzen-2-yl]propionic acid] | – | –
3000 | 20 | COc1ccc(/C=C/CCCCOc2ccc(NC(=O)CCCC(=O)Nc3nccs3)cc2CCC(=O)O)cc1 [1 (o), 3-[1-[6-(4-methoxyphenyl)hex-5E-enyl]oxy-4-[4-(2-thiazolyl)aminocarbonylbutanamido]benzen-2-yl]propionic acid] | – | –
7400 | 20 | COc1ccc(/C=C/CCCCOc2ccc(NC(=O)c3cccc(C(=O)O)c3)cc2CCC(=O)O)cc1 [2 (b), 3-[1-[6-(4-methoxyphenyl)hex-5E-enyl]oxy-4-(3-carboxylbenzamido)benzen-2-yl]propionic acid] | – | –
– | 45 | CCCCCCCCC(O)/C=C/CCCCOc1ccc(N2C(=O)CCCS2(=O)=O)cc1CCC(=O)O (stereo not drawn) [Example 13, 3-[1-(5E-7-hydroxy-n-pentadecenyl)oxy-4-(perhydro-1,2-thiazin-1,1,3-trione-2-yl)benzen-2-yl]propionic acid] | – | –
7000 | 90 | COc1ccc(/C=C/CCCCOc2ccc(OCCCCC(=O)N(C)C)cc2CCC(=O)O)cc1 [Example 16, 3-[1-[6-(4-methoxyphenyl)hex-5E-enyl]oxy-4-(4-dimethylaminocarbonyl-n-butyl)oxybenzen-2-yl]propionic acid] | – | –
– | 25 | COc1ccc(/C=C/CCCCOc2ccc(CCCCC(=O)N(C)C)cc2CCC(=O)O)cc1 [Example 18, 3-[1-[6-(4-methoxyphenyl)hex-5E-enyl]oxy-4-(4-dimethylaminocarbonylbutyl)benzen-2-yl]propionic acid] | – | –
– | 30 | COc1ccc(/C=C/CCCCOc2ccc(C(=O)CCCC(=O)N(C)C)cc2CCC(=O)O)cc1 [Example 19, 3-[1-[6-(4-methoxyphenyl)hex-5E-enyl]oxy-4-(1-oxo-4-dimethylaminocarbonylbutyl)benzen-2-yl]propionic acid] | – | –
2000 | 3.6 | COc1ccc(/C=C/CCCCOc2ccc(C(O)CCCC(=O)N(C)C)cc2CCC(=O)O)cc1 (stereo not drawn) [Example 20, 3-[1-[6-(4-methoxyphenyl)hex-5E-enyl]oxy-4-(1-hydroxy-4-dimethylaminocarbonylbutyl)benzen-2-yl]propionic acid] | – | –
– | 18 | CCCCCCCCC(O)/C=C/CCCCOc1cccc(OCCCCC(=O)N(C)C)c1CCC(=O)O (stereo not drawn) [Example 29, 3-[1-(5E-7-hydroxypentadecenyl)oxy-3-(4-dimethylaminocarbonylbutyl)oxybenzen-2-yl]propionic acid] | – | –
6000 | 40 | COc1ccc(/C=C/CCCCOc2cccc(OCCCC(=O)O)c2CCC(=O)O)cc1 [Example 31, 3-[1-[6-(4-methoxyphenyl)hex-5E-enyl]oxy-3-(3-carboxylpropyl)oxybenzen-2-yl]propionic acid] | – | –
5400 | 50 | COc1ccc(/C=C/CCCCOc2cccc(NC(=O)CCCC(=O)N(C)C)c2CCC(=O)O)cc1 [Example 32, 3-[1-[6-(4-methoxyphenyl)hex-5E-enyl]oxy-3-(4-dimethylaminocarbonylbutanamido)benzen-2-yl]propionic acid] | – | –
– | 15 | COc1ccc(/C=C/CCCCOc2cccc(CCCCCC(=O)O)c2CCC(=O)O)cc1 [Example 33, 3-[1-[6-(4-methoxyphenyl)hex-5E-enyl]oxy-3-(5-carboxylpentyl)benzen-2-yl]propionic acid] | – | –
810 | 20 | COc1ccc(/C=C/CCCCOc2cccc(CCCCCC(=O)N(C)C)c2CCC(=O)O)cc1 [Example 34, 3-[1-[6-(4-methoxyphenyl)hex-5E-enyl]oxy-3-(5-dimethylaminocarbonylpentyl)benzen-2-yl]propionic acid] | – | –
– | 200 | COc1ccc(/C=C/CCCCOc2cccc(N(S(C)(=O)=O)S(C)(=O)=O)c2CCC(=O)O)cc1 [Example 35, 3-[1-[6-(4-methoxyphenyl)hex-5E-enyl]oxy-3-dimesylaminobenzen-2-yl]propionic acid] | – | –
– | 150 | COc1ccc(/C=C/CCCCOc2cccc(N3C(=O)CCCS3(=O)=O)c2CCC(=O)O)cc1 [Example 36, 3-[1-[6-(4-methoxyphenyl)hex-5E-enyl]oxy-3-(perhydro-1,2-thiazin-1,1,3-trione-2-yl)benzen-2-yl]propionic acid] | – | –
1700 | 6 | COc1ccc(/C=C/CCCCOc2cccc(C(=O)CCCCC(=O)O)c2CCC(=O)O)cc1 [Example 37, 3-[1-[6-(4-methoxyphenyl)hex-5E-enyl]oxy-3-(1-oxo-5-carboxylpentyl)benzen-2-yl]propionic acid] | – | –
4900 | 120 | COc1ccc(/C=C/CCCCOc2cccc(C(O)CCCCC(=O)O)c2CCC(=O)O)cc1 (stereo not drawn) [Example 38, 3-[1-[6-(4-methoxyphenyl)hex-5E-enyl]oxy-3-(1-hydroxy-5-carboxylpentyl)benzen-2-yl]propionic acid] | – | –
– | 23 | COc1ccc(/C=C/CCCCOc2cccc(C(=O)CCCCC(=O)N(C)C)c2CCC(=O)O)cc1 [Example 39, 3-[1-[6-(4-methoxyphenyl)hex-5E-enyl]oxy-3-(1-oxo-5-dimethylaminocarbonylpentyl)benzen-2-yl]propionic acid] | – | –
– | 170 | COc1ccc(/C=C/CCCCOc2cccc(C(O)CCCCC(=O)N(C)C)c2CCC(=O)O)cc1 (stereo not drawn) [Example 40, 3-[1-[6-(4-methoxyphenyl)hex-5E-enyl]oxy-3-(1-hydroxy-5-dimethylaminocarbonylpentyl)benzen-2-yl]propionic acid] | – | –

Structure (SMILES) | IC50 (Human PMNLs) [nM] | IC50 (human PMNL LTB4 receptor) [nM] | LD50 ([1]; intravenous administration) [mg/kg] | LD50 ([1]; oral administration) [mg/kg]
COc1ccc(/C=C/CCCCOc2cccc(OCCCCN3CCCC3=O)c2CCC(=O)O)cc1 [30 (a), 3-[1-[6-(4-methoxyphenyl)hex-5E-enyl]oxy-3-[4-(2-pyrrolidon-1-yl)-n-butoxy]benzen-2-yl]propionic acid] | 1100 | 70 | – | –
COc1ccc(/C=C/CCCCOc2cccc(OCCCCC(=O)O)c2CCC(=O)O)cc1 [31 (a), 3-[1-[6-(4-methoxyphenyl)hex-5E-enyl]oxy-3-(4-carboxylbutyl)oxybenzen-2-yl]propionic acid] | 1900 | – | 260 | 2200
COc1ccc(/C=C/CCCCOc2ccc(OCCCCC(=O)O)cc2CCC(=O)O)cc1 [Example 14, 3-[1-[6-(4-methoxyphenyl)hex-5E-enyl]oxy-4-(4-carboxylbutoxy)benzen-2-yl]propionic acid] | – | 70 | – | –
COc1ccc(/C=C/CCCCOc2cccc(OCCCCC(=O)N(C)C)c2CCC(=O)O)cc1 [Example 30, 3-[1-[6-(4-methoxyphenyl)hex-5E-enyl]oxy-3-(4-dimethylaminocarbonylbutyl)oxybenzen-2-yl]propionic acid] | 840 | 16 | 175 | 3900
